Experimental data reported in US6660891B2, “Methods for the production of D-chiro-inositol and the use of D-chiro inositol obtained therefrom” (Insmed Incorporated, priority 2000, dated 2003).

Tests used:
[1] = system: ovulation in women afflicted with polycystic ovary syndrome; settings: 44 women with PCOS; DCI 1200 mg/day for 6-8 weeks; placebo 27%; cited from earlier work
[2] = system: insulin sensitivity; settings: oral supplementation, insulin resistant individuals; cited from earlier work
[3] = system: glucose tolerance and insulin secretion; settings: subjects with impaired glucose tolerance; DCI 1200 mg/day for 2 weeks; restored to normal levels; cited from earlier work
[4] = Stability in concentrated aqueous acid (HCl); assay type: physicochemical; settings: about 5 N to 12 N HCl, about 65° C. to about 110° C.; conditions that destroy other sugars and demethylate D-Pinitol
Description: Therefore this single reaction provides D-chiro-inositol that is substantially free of other contaminating carbohydrates, thus eliminating the need for subsequent purification techniques.
One aspect of the invention involves the conversion of […] a concentrated acid. […] Thus a crude D-chiro-inositol composition comprising one or more components where at least 10% (w/w) of the mass is a D-chiro-inositol moiety is subject to concentrated acid in a solution of about 5 N to 12 N HCl at a temperature in the range of about 65° C. to about 110° C. for a period of time.

stability under acidic conditions [4]: stable
Compound: OC1C(O)C(O)C(O)C(O)C1O [DCI, D-chiro-inositol]
ovulation, proportion of patients [1]: 86% | insulin sensitivity [2]: improves insulin sensitivity | glucose tolerance [3]: restored | insulin secretion [3]: restored
